Among the data in PMC3960879 (Biology, 2013) are Kd values, retold here.

Usually Kd stands for the concentration at which binding is half-saturated.

The target of one experiment is T1, F17aG receptor-binding domain (Escherichia coli, UniProt Q99003).
T1 construct: variants of the lectin domains with oligolysine (4Lys) tails have been constructed; made in house; host or cells: E. coli (periplasm)
T1 sequence (Q99003 23-199): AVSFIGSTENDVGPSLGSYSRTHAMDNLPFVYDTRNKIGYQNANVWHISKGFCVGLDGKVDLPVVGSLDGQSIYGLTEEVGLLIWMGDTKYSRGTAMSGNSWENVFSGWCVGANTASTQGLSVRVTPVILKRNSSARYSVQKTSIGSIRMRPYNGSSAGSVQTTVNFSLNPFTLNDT
Put plainly: biochemical. Conditions: SPR steady state, 25 °C, pH 7.4; good fit for at least three related experiments; read-out: dissociation constant Kd, F17aG. On the procedure:
The affinity profiles were determined by surface plasmon resonance (SPR) measurements using a BiaCore 3000 instrument (GE Healthcare). […] The proteins were covalently immobilized on CM5 sensor chips (Biacore AB) to an average density of 2000 RU (resonance units in pg/mm^2). On each chip, one flow cell was coated with a camel single domain antibody for use as a reference cell. The other three flow cells (Fc2, Fc3 and Fc4) were coated with three different F17G variants. Carbohydrate concentrations ranging from 10 µM to 10 mM in running buffer (20 mM Hepes, pH 7.4; 150 mM NaCl; 3 mM EDTA and 0.005% surfactant Tween 20) were incubated for one minute on all flow cells simultaneously, at 25 °C and at a flow rate of 30 µL/min. Complete dissociation of the carbohydrates in running buffer was verified before starting a new binding cycle. All binding cycles were performed in duplicate, including a zero concentration cycle (injection of pure running buffer). All analysis was done using the BIAeval software. In each case the equilibrium resonance signal from the reference cell was subtracted from that of the various F17G flow cells (2-1, 3-1, 4-1). A Langmuir binding isotherm with a 1:1 stoichiometry was fitted to the data, from which the equilibrium dissociation constants, Kd, were obtained.
In the case of `CO[C@H]1O[C@H](CO)[C@@H](O)[C@H](O)[C@H]1NC(C)=O` [Me α N-acetylglucosamine], the equilibrium dissociation constant (Kd) stood at 9.8 mM.
Still for that read-out and setting: as for `CO[C@@H]1O[C@H](CO)[C@@H](O)[C@H](O)[C@H]1NC(C)=O` [Me β N-acetylglucosamine], the figure is 1.2 mM.

The experiment is the same for the next values; noted with them: SPR steady state, 25 °C, pH 7.4; read-out: Affinity range (Kd class), F17aG.
Consider `CC(=O)N[C@H]1[C@H](O[C@H]2[C@@H](O)[C@@H](CO)O[C@@H](O[C@H]3[C@H](O)[C@@H](O)C(O)O[C@@H]3CO)[C@@H]2O)O[C@H](CO)[C@@H](O)[C@@H]1O[C@@H]1O[C@H](CO)[C@H](O)[C@H](O)[C@H]1O[C@@H]1O[C@@H](C)[C@@H](O)[C@@H](O)[C@@H]1O` (some centres unmarked) [Fucα1,2Galβ1,3GlcNAcβ1,3Galβ1,4Glc], for which the dissociation constant Kd is > 100 mM.
Same read-out and setting: next, `COc1ccc(O[C@@H]2O[C@H](CO)[C@@H](O[C@@H]3O[C@H](CO)[C@H](O)[C@H](O)[C@H]3NC(C)=O)[C@H](O)[C@H]2NC(C)=O)cc1` [GalNAcβ1,4GlcNAcβ1-methoxy phenyl]: 1 to 10 mM; `CC(=O)N[C@H]1C(O)O[C@H](CO)[C@H](O)[C@@H]1O[C@@H]1O[C@H](CO)[C@H](O)[C@H](O)[C@H]1O` (some centres unmarked) [Galβ1,3GalNAc]: 10 to 100 mM; `CC(=O)N[C@H]1[C@H](O[C@H]2[C@@H](O)[C@@H](CO)O[C@@H](O[C@H]3[C@H](O)[C@@H](O)C(O)O[C@@H]3CO)[C@@H]2O)O[C@H](CO)[C@@H](O[C@@H]2O[C@H](CO)[C@H](O)[C@H](O)[C@H]2O)[C@@H]1O` (stereo partly drawn) [Galβ1,4GlcNAcβ 1,3Gal β1,4Glc]: 10 to 100 mM.
Turning to `CO[C@@H]1O[C@H](CO)[C@@H](O)[C@H](O)[C@H]1NC(C)=O` [Me β N-acetylglucosamine], the Kd was 1 to 10 mM.
Same read-out and setting: as for Gal β1,4 GlcNAc, the figure is 1 to 10 mM.
